# Patent US12077503B2, “Substituted cyclic amides and their use as herbicides” (FMC CORPORATION, priority 2015, dated 2024)
# Key:
# Type in all cases: in vivo
# [1] = system: ryegrass, Italian (Italian ryegrass, Lolium multiflorum); test: Test A preemergence; details: Lolium multiflorum, pre-emergence, 240 h
# In short: (§1)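 Each rating is a visual injury score from 0 to 100 given about 10 d after treatment, judged against untreated controls kept alongside in the greenhouse. In loam soil–sand blend, seeds got a preemergence directed soil spray, while postemergence plants were 2 to 10 cm tall at spraying.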
# [2] = system: giant foxtail (Setaria faberii); test: Test A preemergence; details: Setaria faberi, pre-emergence, 240 h
# In short: as §1
# [3] = system: barnyardgrass (Echinochloa crus-galli); test: Test A preemergence; details: Echinochloa crus-galli, pre-emergence, 240 h
# In short: as §1
# [4] = system: ragweed (common ragweed, Ambrosia elatior); test: Test A preemergence; details: Ambrosia artemisiifolia, pre-emergence, 240 h
# In short: as §1
# [5] = system: pigweed (Amaranthus retroflexus); test: Test A preemergence; details: Amaranthus retroflexus, pre-emergence, 240 h
# [6] = system: Kochia (Kochia scoparia); test: Test A preemergence; details: Bassia scoparia, pre-emergence, 240 h
# In short: as §1
# [7] = system: ryegrass, Italian (Italian ryegrass, Lolium multiflorum); test: Test A postemergence; details: Lolium multiflorum, post-emergence, 240 h, read-out: Plant response rating, Ryegrass, Italian
# In short: as §1
# [8] = system: Galium (catchweed bedstraw, Galium aparine); test: Test A postemergence; details: Galium, post-emergence, 240 h, read-out: Plant response rating, Galium
# In short: as §1
# [9] = system: corn (Zea mays); test: Test A postemergence; details: Zea mays, post-emergence, 240 h
# In short: as §1
# [10] = system: giant foxtail (Setaria faberii); test: Test A postemergence; details: Setaria faberi, post-emergence, 240 h, read-out: Plant response rating, Foxtail, Giant
# In short: as §1
# [11] = system: barnyardgrass (Echinochloa crus-galli); test: Test A postemergence; details: Echinochloa crus-galli, post-emergence, 240 h, read-out: Plant response rating, Barnyardgrass
# In short: as §1
# [12] = system: ragweed (common ragweed, Ambrosia elatior); test: Test A postemergence; details: Ambrosia artemisiifolia, post-emergence, 240 h, read-out: Plant response rating, Ragweed
# In short: as §1
# [13] = system: pigweed (Amaranthus retroflexus); test: Test A postemergence; details: Amaranthus retroflexus, post-emergence, 240 h, read-out: Plant response rating, Pigweed
# In short: as §1
# [14] = system: Kochia (Kochia scoparia); test: Test A postemergence; details: Bassia scoparia, post-emergence, 240 h, read-out: Plant response rating, Kochia
# In short: as §1
# [15] = system: wheat (Triticum aestivum); test: Test A postemergence; details: Triticum aestivum, post-emergence, 240 h, read-out: Plant response rating, Wheat
# In short: as §1
# [16] = 125 g ai/ha, Postemergence, visual injury after approximately 10 d, 0 to 100 scale where 0 is no effect and 100 is complete control
# [17] = 500 g ai/ha, postemergence, visual injury, 0 to 100 scale (0 no effect, 100 complete control), approx. 10 d
compound,measurement,setting,value
Cc1ccc([C@H]2CN(C)C(=O)[C@@H]2C(=O)Nc2cccc(F)c2C)cc1Cl [Compound 1014],pest or weed control at 125 g/ha,"[1]; 125 g ai/ha, Preemergence, visual injury rating after approximately 10 d, read-out: Ryegrass, Italian plant response rating (0 to 100 scale, 0 is no effect, 100 is complete control)",0%
same,pest or weed control at 500 g/ha,"[1]; 500 g ai/ha, preemergence, visual injury rating about 10 d after treatment, 0 to 100 scale (0 no effect, 100 complete control), read-out: Ryegrass, Italian plant response rating",70%
same,pest or weed control at 125 g/ha,"[2]; 125 g ai/ha, Preemergence, visual injury rating after approximately 10 d, read-out: Foxtail, Giant plant response rating (0 to 100 scale, 0 is no effect, 100 is complete control)",90%
same,pest or weed control at 500 g/ha,"[2]; 500 g ai/ha, preemergence, visual injury rating about 10 d after treatment, 0 to 100 scale (0 no effect, 100 complete control), read-out: Foxtail, Giant plant response rating",90%
same,pest or weed control at 125 g/ha,"[3]; 125 g ai/ha, Preemergence, visual injury rating after approximately 10 d, read-out: Barnyardgrass plant response rating (0 to 100 scale, 0 is no effect, 100 is complete control)",90%
same,pest or weed control at 500 g/ha,"[3]; 500 g ai/ha, preemergence, visual injury rating about 10 d after treatment, 0 to 100 scale (0 no effect, 100 complete control), read-out: Barnyardgrass plant response rating",90%
same,pest or weed control at 125 g/ha,"[4]; 125 g ai/ha, Preemergence, visual injury rating after approximately 10 d, read-out: Ragweed plant response rating (0 to 100 scale, 0 is no effect, 100 is complete control)",0%
same,pest or weed control at 500 g/ha,"[4]; 500 g ai/ha, preemergence, visual injury rating about 10 d after treatment, 0 to 100 scale (0 no effect, 100 complete control), read-out: Ragweed plant response rating",0%
same,pest or weed control at 125 g/ha,"[5]; 125 g ai/ha, Preemergence, visual injury rating after approximately 10 d, read-out: Pigweed plant response rating (0 to 100 scale, 0 is no effect, 100 is complete control)",30%
same,pest or weed control at 500 g/ha,"[5]; 500 g ai/ha, preemergence, visual injury rating about 10 d after treatment, 0 to 100 scale (0 no effect, 100 complete control), read-out: Pigweed plant response rating",30%
same,pest or weed control at 125 g/ha,"[6]; 125 g ai/ha, Preemergence, visual injury rating after approximately 10 d, read-out: Kochia plant response rating (0 to 100 scale, 0 is no effect, 100 is complete control)",20%
same,pest or weed control at 500 g/ha,"[6]; 500 g ai/ha, preemergence, visual injury rating about 10 d after treatment, 0 to 100 scale (0 no effect, 100 complete control), read-out: Kochia plant response rating",70%
same,pest or weed control at 125 g/ha,[7]; [16],30%
same,pest or weed control at 500 g/ha,[7]; [17],60%
same,pest or weed control at 125 g/ha,[8]; [16],20%
same,pest or weed control at 500 g/ha,[8]; [17],60%
same,"Corn plant response rating (crop injury, 0 = no effect, 100 = complete kill) at 125 g/ha",[9]; [16],70%
same,"Corn plant response rating (crop injury, 0 = no effect, 100 = complete kill) at 500 g/ha",[9]; [17],90%
same,pest or weed control at 125 g/ha,[10]; [16],90%
same,pest or weed control at 500 g/ha,[10]; [17],90%
same,pest or weed control at 125 g/ha,[11]; [16],90%
same,pest or weed control at 500 g/ha,[11]; [17],90%
same,pest or weed control at 125 g/ha,[12]; [16],0%
same,pest or weed control at 500 g/ha,[12]; [17],30%
same,pest or weed control at 125 g/ha,[13]; [16],30%
same,pest or weed control at 500 g/ha,[13]; [17],30%
same,pest or weed control at 125 g/ha,[14]; [16],30%
same,pest or weed control at 500 g/ha,[14]; [17],50%
same,plant injury at 125 g/ha,[15]; [16],30%
same,plant injury at 500 g/ha,[15]; [17],80%
